Results from publication PMC10721329, “Quisinostat is a brain-penetrant radiosensitizer in glioblastoma” (JCI Insight, 2023).
Several values for one entry are separate records, joined by “and”; a condition that tells them apart may be missing. Equal entries are not always repeated.

What was measured:
[1] = test system: GB187 patient-derived GSC line; assay: CellTiter-Glo dose-response cell viability assay; assay type: cell-based, human
Procedure: (§1) QST (JNJ-26481585) is a second-generation hydroxamic acid harboring remarkable selectivity toward class I HDACs, with a biochemical IC50 of 0.1 nM for HDAC1 ([13]). […] To determine the cytotoxic effects of QST, we performed a dose-titration cell viability assay in 7 patient-derived GSC lines (BT145, GB187, GB239, GB282, GB71, GB82, and GB126) and 1 long-term serum-grown human GBM cell line (U87). Because GBMs display a high degree of intratumoral heterogeneity, we used GSCs derived from both primary and recurrent GBMs that harbored distinct genetic mutations or aberrations, growth rates, MGMT promoter methylation status, and gene expression profiles (Supplemental Figure 1; supplemental material available online with this article; https://doi.org/10.1172/jci.insight.167081DS1). Cell lines were treated with various concentrations of QST (10–1000 nM), and cell viability was measured 3–5 days later (Figure 1, A and B). […] Treatment with QST at the IC50 induced significant inhibition of proliferation (Ki67) and an increase in programmed cell death (cleaved caspase 3) in 2 different GSC lines (Figure 1, C and D). Additional analyses confirmed that QST induces apoptosis after short-term treatment through increased staining of the apoptotic marker annexin V (Figure 2A) and cell cycle arrest (in G2- or S-phase; Figure 2B and Supplemental Figure 1B).
(§2) GSCs were seeded in laminin-coated tissue culture–treated 96-well plates (clear bottom, white plate; Corning) at a density of 1000–5000 cells per well (cell line dependent) in GSC media. U87-MG were seeded using their normal growth conditions without laminin (10% bovine calf serum in DMEM). All cells were incubated at 37°C and allowed to adhere overnight. The next day, cells were treated with incremental concentrations of QST (Selleckchem; 0, 10, 25, 50, 100, 250, 500, and 1000 nM) diluted in media. Cells treated without QST were treated with DMSO diluted in media. Following treatment with QST, cells were grown for 3 to 5 days (cell line dependent), and cell viability was measured and quantified. All cell viability measurements were performed using the CellTiter-Glo luminescent cell viability assay (Promega) following the manufacturer’s instructions. For the sulforhodamine B colorimetric assay for cytotoxicity, the protocol was performed as described elsewhere ([33]). All cell viability results represent the mean of at least 3 biological replicates, each containing 3 technical replicates.

[2] = test system: GB282 patient-derived GSC line; assay: CellTiter-Glo dose-response cell viability assay; assay type: cell-based, human
Procedure: as §1, §2

[3] = test system: GB126 patient-derived GSC line; assay: CellTiter-Glo dose-response cell viability assay; assay type: cell-based, human
Procedure: as §1, §2

[4] = Stability in neurobasal cell culture medium at 37°C; assay type: in vitro ADME; details: for %stability: neurobasal cell media, 37C
Procedure: Hydroxamic acid–based compounds have been reported to display poor stability and high plasma clearance due to the presence of arylesterases and carboxylesterases in rodent blood ([34]). Therefore, we measured the stability of QST in mouse plasma and brain to determine whether drug degradation occurred during our sample preparations and equilibrium dialyses for the determination of unbound drug level (performed at 37°C). […] QST degradation was also observed in mouse brain homogenate (Figure 6B). However, perfusion of mice before brain collection prevented rapid drug degradation in the brain matrix. […] Degradation of QST can also be constrained if plasma and brain samples are processed at 4°C (Supplemental Figure 4A). All subsequent sample preparations were therefore performed on ice-cold baths to avoid degradation of QST in our PK analyses. […] The observed stability is probably due to the absence of esterases in human matrices, which are responsible for degradation of QST ([34]). Because we employed QST in several in vitro studies (Figures 1–4), the stability of the molecule was also tested in the cell media used to culture GSCs (neurobasal medium; see Methods).
Stability Study in Mouse Plasma, Mouse Brain, Human Plasma, Human Brain, and Neural […]
The stability of QST was determined in BALB/c mouse plasma, male nude athymic perfused and nonperfused mouse brain homogenate (1:9 w/v of PBS; pH 7.4), human brain (obtained from VRL Eurofins) homogenate (1:4 w/v of PBS; pH 7.4), pooled human plasma (Innovative Research), and neurobasal media. QST stock solutions (1 mM) were prepared in acetonitrile, subsequently diluted in a 40% methanol mixture, and added t o the matrices to make final concentrations of 100 nM or 10 nM. Then 50 or 30 µL of either plasma or brain homogenate containing QST were aliquoted into 1.5-mL microcentrifuge tubes (Eppendorf) and were incubated at either 4 °C or 37 °C for 0, 2, 4, 6, 12, or 24 hours (n = 3 at each time point). […]
Plasma and brain […]
homogenate samples were stored at −80 °C until LC-MS/MS analysis. […]

Cn1cc(CNCC2CCN(c3ncc(C(=O)NO)cn3)CC2)c2ccccc21 [QST, quisinostat]
Cell viability (fraction of DMSO control) ([1]; GB187x, QST 10 nM (log[nM] 1)): 0.9255 and 0.9282
Cell viability (fraction of DMSO control) ([1]; GB187x, QST 25 nM (log[nM] 1.39794)): 0.8647 and 0.8308
Cell viability (fraction of DMSO control) ([1]; GB187x, QST 50 nM (log[nM] 1.69897)): 0.7684 and 0.7163
Cell viability (fraction of DMSO control) ([1]; GB187x, QST 100 nM (log[nM] 2)): 0.6258 and 0.5995
Cell viability (fraction of DMSO control) ([1]; GB187x, QST 250 nM (log[nM] 2.39794)): 0.5316 and 0.4983
Cell viability (fraction of DMSO control) ([1]; GB187x, QST 500 nM (log[nM] 2.69897)): 0.4749 and 0.464
Cell viability (fraction of DMSO control) ([1]; GB187x, QST 1000 nM (log[nM] 3)): 0.4026 and 0.4385
viability at 0.01 µM ([1]; Homo sapiens, GB187x, QST 10 nM (log[nM] 1), read-out: Cell viability (fraction of DMSO control)): 88.5%
viability at 0.025 µM ([1]; Homo sapiens, GB187x, QST 25 nM (log[nM] 1.39794), read-out: Cell viability (fraction of DMSO control)): 79.9%
viability at 0.05 µM ([1]; Homo sapiens, GB187x, QST 50 nM (log[nM] 1.69897), read-out: Cell viability (fraction of DMSO control)): 70.8%
viability at 0.1 µM ([1]; Homo sapiens, GB187x, QST 100 nM (log[nM] 2), read-out: Cell viability (fraction of DMSO control)): 59%
viability at 0.25 µM ([1]; Homo sapiens, GB187x, QST 250 nM (log[nM] 2.39794), read-out: Cell viability (fraction of DMSO control)): 53.2%
viability at 0.5 µM ([1]; Homo sapiens, GB187x, QST 500 nM (log[nM] 2.69897), read-out: Cell viability (fraction of DMSO control)): 47.1%
viability at 1 µM ([1]; Homo sapiens, GB187x, QST 1000 nM (log[nM] 3), read-out: Cell viability (fraction of DMSO control)): 43.9%
IC50 ([1]; Homo sapiens, GB187, 3-5 days): 100 nM
Cell viability (fraction of DMSO control) ([2]; GB282xTdT, QST 10 nM (log[nM] 1)): 0.8875 and 0.8957
Cell viability (fraction of DMSO control) ([2]; GB282xTdT, QST 25 nM (log[nM] 1.39794)): 0.7531 and 0.7488
Cell viability (fraction of DMSO control) ([2]; GB282xTdT, QST 50 nM (log[nM] 1.69897)): 0.6063 and 0.5741
Cell viability (fraction of DMSO control) ([2]; GB282xTdT, QST 100 nM (log[nM] 2)): 0.3901 and 0.3391
Cell viability (fraction of DMSO control) ([2]; GB282xTdT, QST 250 nM (log[nM] 2.39794)): 0.1846 and 0.1521
Cell viability (fraction of DMSO control) ([2]; GB282xTdT, QST 500 nM (log[nM] 2.69897)): 0.1138 and 0.08263
Cell viability (fraction of DMSO control) ([2]; GB282xTdT, QST 1000 nM (log[nM] 3)): 0.07483 and 0.05455
viability at 0.01 µM ([2]; Homo sapiens, GB282xTdT, QST 10 nM (log[nM] 1), read-out: Cell viability (fraction of DMSO control)): 98.4%
viability at 0.025 µM ([2]; Homo sapiens, GB282xTdT, QST 25 nM (log[nM] 1.39794), read-out: Cell viability (fraction of DMSO control)): 84.2%
viability at 0.05 µM ([2]; Homo sapiens, GB282xTdT, QST 50 nM (log[nM] 1.69897), read-out: Cell viability (fraction of DMSO control)): 68%
viability at 0.1 µM ([2]; Homo sapiens, GB282xTdT, QST 100 nM (log[nM] 2), read-out: Cell viability (fraction of DMSO control)): 43.8%
viability at 0.25 µM ([2]; Homo sapiens, GB282xTdT, QST 250 nM (log[nM] 2.39794), read-out: Cell viability (fraction of DMSO control)): 22%
viability at 0.5 µM ([2]; Homo sapiens, GB282xTdT, QST 500 nM (log[nM] 2.69897), read-out: Cell viability (fraction of DMSO control)): 13.2%
viability at 1 µM ([2]; Homo sapiens, GB282xTdT, QST 1000 nM (log[nM] 3), read-out: Cell viability (fraction of DMSO control)): 8.37%
IC50 ([2]; Homo sapiens, GB282, 3-5 days): 66 nM
Cell viability (fraction of DMSO control) ([3]; GB126 (GB126xTdT), QST 10 nM (log[nM] 1), no IR): 0.8102 and 0.8005
Cell viability (fraction of DMSO control) ([3]; GB126 (GB126xTdT), QST 25 nM (log[nM] 1.39794), no IR): 0.6353 and 0.6191
Cell viability (fraction of DMSO control) ([3]; GB126 (GB126xTdT), QST 50 nM (log[nM] 1.69897), no IR): 0.4839 and 0.5154
Cell viability (fraction of DMSO control) ([3]; GB126 (GB126xTdT), QST 100 nM (log[nM] 2), no IR): 0.3119 and 0.4774
viability at 0.01 µM ([3]; Homo sapiens, GB126 (GB126xTdT), QST 10 nM (log[nM] 1), no IR, read-out: Cell viability (fraction of DMSO control)): 79.2%
viability at 0.025 µM ([3]; Homo sapiens, GB126 (GB126xTdT), QST 25 nM (log[nM] 1.39794), no IR, read-out: Cell viability (fraction of DMSO control)): 66.8%
viability at 0.05 µM ([3]; Homo sapiens, GB126 (GB126xTdT), QST 50 nM (log[nM] 1.69897), no IR, read-out: Cell viability (fraction of DMSO control)): 57.6%
viability at 0.1 µM ([3]; Homo sapiens, GB126 (GB126xTdT), QST 100 nM (log[nM] 2), no IR, read-out: Cell viability (fraction of DMSO control)): 44.3%
IC50 ([3]; Homo sapiens, GB126, 3-5 days): 86 nM
%stability ([4]; 10 nM, time 0 hrs (15 minutes used as zero hour time point)): 101.6% and 100.2% and 98.2%
%stability ([4]; 10 nM, time 0 hrs (15 minutes used as zero hour time point), mean): 100.0%
%stability ([4]; 10 nM, time 2 hrs): 102.7% and 80.7% and 97.1%
%stability ([4]; 10 nM, time 2 hrs, mean): 93.5%
%stability ([4]; 10 nM, time 5 hrs): 88.0% and 90.7% and 90.1%
%stability ([4]; 10 nM, time 5 hrs, mean): 89.6%
%stability ([4]; 10 nM, time 24 hrs): 69.7% and 66.1%
%stability ([4]; 10 nM, time 24 hrs, mean): 68.5%
%stability ([4]; 100 nM, time 0 hrs (15 minutes used as zero hour time point)): 85.1% and 110.5% and 104.4%
%stability ([4]; 100 nM, time 0 hrs (15 minutes used as zero hour time point), mean): 100.0%
%stability ([4]; 100 nM, time 2 hrs): 109.4% and 82.9% and 110.7%
%stability ([4]; 100 nM, time 2 hrs, mean): 101.0%
%stability ([4]; 100 nM, time 5 hrs): 95.9% and 77.8% and 80.7%
%stability ([4]; 100 nM, time 5 hrs, mean): 84.8%
%stability ([4]; 100 nM, time 24 hrs): 73.1% and 67.2% and 68.6%
%stability ([4]; 100 nM, time 24 hrs, mean): 69.6%
QST intact in cell media ([4]; neurobasal medium, 24-hour incubation, 37°C): approximately 70%
